# Target: human Plasma Kallikrein (KLKB1) (Homo sapiens (Human), UniProt P03952)
# Test: Inhibition of KLKB1 endpoint assay
# Assay type: biochemical
# Conditions: fluorogenic substrate H-Pro-Phe-Arg-AMC, 1 hr at Room Temperature, read-out: IC50 measurements for the inhibition of human Plasma Kallikrein (KLKB1)
# Procedure: The ability of compounds of Formula I to inhibit plasma kallikrein (KLKB1), Factor XIIa (FXIIa), Factor XIa (FXIa), Factor Xa (FXa), Factor IIa (alpha-thrombin; FIIa), plasmin, trypsin, tissue kallikrein 1 (KLK1), Factor VIIa (FVIIa), or FVIIa complexed with Tissue Factor, phospholipids and CaCl2 (FVIIa/TF/PL/CaCl2) was determined using the following biochemical assays in assay buffer (100 mM Tris, 150 mM NaCL, adjusted to a pH of 7.8 with HCl, and containing 0.1% (w/v) BSA and 0.05% (v/v) Tween20) in the presence of 1% (v/v) DMSO:
# Subsequently, PPACK II (Calbiochem) was added as a stop solution to achieve a final concentration of 1 μM and fluorescence was measured using an Envision Reader (PerkinElmer) with the wavelength excitation setting of 355 nm and the wavelength emission setting of 460 nm.
# human Plasma Kallikrein (KLKB1), sequence (P03952 391-638): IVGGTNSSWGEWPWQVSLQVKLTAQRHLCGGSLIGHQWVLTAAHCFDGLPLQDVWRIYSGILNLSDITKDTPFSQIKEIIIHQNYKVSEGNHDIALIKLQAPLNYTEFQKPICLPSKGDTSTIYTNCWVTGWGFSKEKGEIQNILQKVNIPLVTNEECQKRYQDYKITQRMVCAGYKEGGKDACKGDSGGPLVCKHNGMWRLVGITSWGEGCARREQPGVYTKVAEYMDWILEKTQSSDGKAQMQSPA
# human Plasma Kallikrein (KLKB1), sequence (P03952 20-390 partner): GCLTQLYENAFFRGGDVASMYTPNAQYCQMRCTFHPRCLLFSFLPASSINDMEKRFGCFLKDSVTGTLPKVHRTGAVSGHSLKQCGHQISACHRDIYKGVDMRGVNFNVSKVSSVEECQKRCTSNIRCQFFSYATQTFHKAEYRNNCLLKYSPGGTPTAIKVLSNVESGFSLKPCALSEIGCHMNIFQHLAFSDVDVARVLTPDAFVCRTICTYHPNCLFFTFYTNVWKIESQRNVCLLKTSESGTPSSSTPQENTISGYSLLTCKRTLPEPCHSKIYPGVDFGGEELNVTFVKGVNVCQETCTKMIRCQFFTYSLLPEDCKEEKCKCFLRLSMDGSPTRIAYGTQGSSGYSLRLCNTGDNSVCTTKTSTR
row,IC50 [nM],SMILES
1,1,Cc1cnn(Cc2ccc(Cn3cc(C(=O)N[C@@H]4CCc5c4ccnc5N)c(C(F)(F)F)n3)cc2)c1 [Example 15]
2,18,Cc1cnn(Cc2ccc(Cn3cc(C(=O)N[C@@H]4CCc5nc(N)ccc54)c(C(F)(F)F)n3)cc2)c1 [Example 16]
3,40,C[C@H]1CCN(c2ccc(Cn3cc(C(=O)N[C@@H]4CCc5nc(N)ccc54)c(C(F)(F)F)n3)cn2)C1 [Example 14]
4,32,Nc1ccc2c(n1)CCC2NC(=O)c1cnn(Cc2ccc(Cn3cccn3)cc2)c1 (stereo not shown) [Example 6]

# The next lines start with the compound.
row,SMILES,IC50 [nM]
1,Cc1ccc2cc(Cn3cc(C(=O)NC4CCc5nc(N)ccc54)nn3)ccc2n1 (stereo not shown) [Example 7],910
2,"Nc1nccc2c1C(NC(=O)c1cn(Cc3ccc(Cn4cccn4)cc3)nn1)CC2 (stereo not shown) [Example 2, 1-(4-Pyrazol-1-ylmethyl-benzyl)-1H-[1,2,3]triazole-4-carboxylic acid (1-amino-6,7-dihydro-5H-[2]pyrindin-7-yl)-amide]",600
3,Nc1ccc2c(n1)CCC2NC(=O)c1cn(Cc2ccc(C(F)c3ccon3)cc2)nn1 (stereo not shown) [Example 3],5500
4,"Cc1ccc2cc(Cn3cc(C(=O)NC4CCCc5nc(N)ccc54)nn3)ccc2n1 (stereo not shown) [Example 1, 1-(2-Methyl-quinolin-6-ylmethyl)-1H-[1,2,3]triazole-4-carboxylic acid (2-amino-5,6,7,8-tetrahydro-quinolin-5-yl)-amide]",900
5,CC(C)(O)c1cccn(Cc2ccc(Cn3cc(C(=O)NC4CCc5nc(N)ccc54)nn3)cc2)c1=O (stereo not shown) [Example 9],560
6,Nc1cc2c(cn1)C(NC(=O)c1cn(Cc3ccc(Cn4cccn4)cc3)nn1)CC2 (stereo not shown) [Example 4],790
